# Values joined by “and” are separate entries in the source; they are usually repeats but may differ in a detail not shown here. Equal entries are not always repeated. Results filed as inconclusive are left out.
# Tested on: BDF1 mice, s.c. Lewis lung carcinoma, T/C %
# Assay: NCI In Vivo Anticancer Drug Screen. Data for tumor model Lewis Lung Carcinoma (subcutaneous) in B6D2F1 (BDF1) mice
# Summary of the method: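 Transplanted tumors grown in mice; compound vs vehicle dosing; endpoint survival or tumor size; ratio T/C.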
# [1] = endpoint: mean tumor weight, dose: 0.25 mg/kg/injection, schedule: Q01DX011 (ip), vehicle: saline, higher = larger tumour
# [2] = endpoint: mean tumor weight, dose: 0.5 mg/kg/injection, schedule: Q01DX011 (ip), vehicle: saline, higher = larger tumour
# [3] = endpoint: mean tumor weight, dose: 2.0 mg/kg/injection, schedule: Q01DX011 (ip), vehicle: saline, higher = larger tumour
structure (smiles),measurement,setting,value
O=[N+]([O-])c1cccc([N+](=O)[O-])c1Cl,T/C,"endpoint: mean tumor weight, dose: 37.0 mg/kg/injection, schedule: Q01DX011 (ip), vehicle: other, higher = larger tumour",116 % of control
same,T/C,"endpoint: mean tumor weight, dose: 55.0 mg/kg/injection, schedule: Q01DX011 (ip), vehicle: other, higher = larger tumour",89 % of control
O=C(O)CP(=O)(O)O,T/C,"endpoint: median survival time, dose: 4.0 mg/kg/injection, schedule: Q01DX009 (ip), vehicle: saline, higher = longer survival",105 % of control
same,T/C,"endpoint: median survival time, dose: 8.0 mg/kg/injection, schedule: Q01DX009 (ip), vehicle: saline, higher = longer survival",97 % of control
same,T/C,"endpoint: median survival time, dose: 16.0 mg/kg/injection, schedule: Q01DX009 (ip), vehicle: saline, higher = longer survival",106 % of control
same,T/C,"endpoint: median survival time, dose: 32.0 mg/kg/injection, schedule: Q01DX009 (ip), vehicle: saline, higher = longer survival",91 % of control
same,T/C,"endpoint: median survival time, dose: 64.0 mg/kg/injection, schedule: Q01DX009 (ip), vehicle: saline, higher = longer survival",87 % of control
same,T/C,"endpoint: median survival time, dose: 128.0 mg/kg/injection, schedule: Q01DX009 (ip), vehicle: saline, higher = longer survival",86 % of control
COC(=O)C[C@](O)(CCC(C)(C)O)C(=O)O[C@@H]1C(OC)=C[C@]23CCCN2CCc2cc4c(cc2[C@H]13)OCO4,T/C,[1],71 % of control
same,T/C,[2],85 % of control
same,T/C,[3],68 % of control
CC(=O)OC(C)(C)/C=C/C(=O)[C@](C)(O)[C@H]1[C@H](O)C[C@@]2(C)[C@@H]3CC=C4[C@@H](C[C@H](O)C(=O)C4(C)C)[C@]3(C)C(=O)C[C@]12C,T/C,"endpoint: mean tumor weight, dose: 0.16 mg/kg/injection, schedule: Q01DX011 (ip), vehicle: saline, higher = larger tumour",69 % of control
same,T/C,[1],53 % of control
same,T/C,"endpoint: mean tumor weight, dose: 0.38 mg/kg/injection, schedule: Q01DX011 (ip), vehicle: saline, higher = larger tumour",83 % of control
same,T/C,"endpoint: mean tumor weight, dose: 0.4 mg/kg/injection, schedule: Q01DX011 (ip), vehicle: carboxymethylcellulose (CMC), higher = larger tumour",67 % of control
same,T/C,"endpoint: mean tumor weight, dose: 0.4 mg/kg/injection, schedule: Q01DX011 (ip), vehicle: saline, higher = larger tumour",48 % of control
same,T/C,"endpoint: mean tumor weight, dose: 0.8 mg/kg/injection, schedule: Q01DX011 (ip), vehicle: saline, higher = larger tumour",42 % of control
O=S(=O)(Cl)c1cc(Cl)c(Cl)cc1Cl,T/C,"endpoint: mean tumor weight, dose: 133.0 mg/kg/injection, schedule: Q01DX011 (ip), vehicle: other, higher = larger tumour",71 % of control
same,T/C,"endpoint: mean tumor weight, dose: 300.0 mg/kg/injection, schedule: Q01DX011 (ip), vehicle: other, higher = larger tumour",83 % of control
same,T/C,"endpoint: mean tumor weight, dose: 450.0 mg/kg/injection, schedule: Q01DX011 (ip), vehicle: other, higher = larger tumour",28 % of control and 41 % of control
same,T/C,"endpoint: mean tumor weight, dose: 600.0 mg/kg/injection, schedule: Q01DX011 (ip), vehicle: other, higher = larger tumour",75 % of control
CCc1ccc(NC(=O)N(CCCl)N=O)cc1,T/C,"endpoint: median survival time, dose: 1.9 mg/kg/injection, schedule: Q01DX009 (ip), vehicle: Klucel (hydroxypropylcellulose) (HPC), higher = longer survival",108 % of control
same,T/C,"endpoint: median survival time, dose: 7.5 mg/kg/injection, schedule: Q01DX009 (ip), vehicle: Klucel (hydroxypropylcellulose) (HPC), higher = longer survival",98 % of control
same,T/C,"endpoint: median survival time, dose: 15.0 mg/kg/injection, schedule: Q01DX009 (ip), vehicle: Klucel (hydroxypropylcellulose) (HPC), higher = longer survival",95 % of control
NC(Cc1c[nH]c2ccc(N(CCCl)CCCl)cc12)C(=O)O (centres undefined),T/C,"endpoint: mean tumor weight, dose: 0.13 mg/kg/injection, schedule: Q01DX011 (ip), vehicle: saline, higher = larger tumour",90 % of control
same,T/C,[2],90 % of control
same,T/C,"endpoint: mean tumor weight, dose: 1.0 mg/kg/injection, schedule: Q01DX011 (ip), vehicle: saline, higher = larger tumour",98 % of control
same,T/C,[3],102 % of control
CCCCOP(=O)(OCCCC)c1ccccc1,T/C,"endpoint: mean tumor weight, dose: 104.0 mg/kg/injection, schedule: Q01DX011 (ip), vehicle: other, higher = larger tumour",93 % of control
same,T/C,"endpoint: mean tumor weight, dose: 233.0 mg/kg/injection, schedule: Q01DX011 (ip), vehicle: other, higher = larger tumour",66 % of control
CCOC(=O)NC1=C(N2CC2)C(=O)C(NC(=O)OCC)=C(N2CC2)C1=O,T/C,"endpoint: median survival time, dose: 0.5 mg/kg/injection, schedule: Q01DX009 (ip), vehicle: saline with Tween-80, higher = longer survival",110 % of control
same,T/C,"endpoint: median survival time, dose: 0.67 mg/kg/injection, schedule: Q01DX005 (ip), vehicle: saline with Tween-80, higher = longer survival",92 % of control
same,T/C,"endpoint: median survival time, dose: 2.5 mg/kg/injection, schedule: Q01DX005 (ip), vehicle: saline with Tween-80, higher = longer survival",91 % of control
same,T/C,"endpoint: median survival time, dose: 3.0 mg/kg/injection, schedule: Q01DX009 (ip), vehicle: saline with Tween-80, higher = longer survival",100 % of control
same,T/C,"endpoint: median survival time, dose: 3.0 mg/kg/injection, schedule: Q04DX003 (ip), vehicle: saline with Tween-80, higher = longer survival",86 % of control
same,T/C,"endpoint: median survival time, dose: 4.0 mg/kg/injection, schedule: Q04DX003 (ip), vehicle: saline with Tween-80, higher = longer survival",93 % of control
same,T/C,"endpoint: median survival time, dose: 4.5 mg/kg/injection, schedule: Q01DX009 (ip), vehicle: saline with Tween-80, higher = longer survival",96 % of control
same,T/C,"endpoint: median survival time, dose: 17.0 mg/kg/injection, schedule: Q01DX001 (ip), vehicle: saline with Tween-80, higher = longer survival",100 % of control
same,T/C,"endpoint: median survival time, dose: 26.0 mg/kg/injection, schedule: Q01DX001 (ip), vehicle: saline with Tween-80, higher = longer survival",86 % of control

# Source: PubChem BioAssay AID270 (DTP/NCI, 2004)
